Laboratory results taken from ChEMBL document CHEMBL3885861, “Open TG-GATES”.

Species: Rattus norvegicus
Assay: Open TG-GATES - Regimen: Single
Type: toxicity, organism-based, Sprague-Dawley
Set-up: regimen Single, gender Male, age 6 weeks
Details: in vivo, po, 1000 mg/kg, route gavage, dose level Middle; for APTT / Bas / Eos / Fbg / Hb / Ht / Lym / MCH / MCHC / MCV / Mono / Neu / PT / Plat / RBC / Ret / WBC: tissue Blood; for KIDNEY_L / KIDNEY_R / KIDNEY_TOTAL: tissue Kidney; for LIVER: tissue Liver; for A/G / ALP / ALT / AST / BUN / CRE / Ca / Cl / DBIL / GLC / IP / K / LDH / Na / PL / RALB / TBIL / TC / TG / TP / gamma-GTP: tissue Plasma

COc1ccc(O)c(C(C)(C)C)c1.COc1ccc(O)cc1C(C)(C)C [BUTYLATED HYDROXYANISOLE]
TERMINAL_BW (3 h): 206 g
APTT (3 h): 14.7 s
Bas (3 h): 0.2%
Eos (3 h): 0.5%
Fbg (3 h): 270.8 mg/dL
Hb (3 h): 13.5 g/dL
Ht (3 h): 39.4%
Lym (3 h): 79.2%
MCH (3 h): 20.8 pg
MCHC (3 h): 34.3%
MCV (3 h): 60.8 fL
Mono (3 h): 1.9%
Neu (3 h): 17.3%
PT (3 h): 11.6 s
Plat (3 h): 142.9 x10_4/uL
RBC (3 h): 649 x10_4/ul
Ret (3 h): 7.8%
WBC (3 h): 77.2 x10_2/uL
KIDNEY_L (3 h): 0.9 g
KIDNEY_R (3 h): 0.9 g
KIDNEY_TOTAL (3 h): 1.8 g
LIVER (3 h): 8.6 g
A/G (3 h): 0.8
ALP (3 h): 1827.4 IU/L
ALT (3 h): 53.4 IU/L
AST (3 h): 77.8 IU/L
BUN (3 h): 10.6 mg/dL
CRE (3 h): 0.2 mg/dL
Ca (3 h): 11.1 mg/dL
Cl (3 h): 103.6 meq/L
DBIL (3 h): 0.028 mg/dL
GLC (3 h): 179.2 mg/dL
IP (3 h): 10.3 mg/dL
K (3 h): 3.5 meq/L
LDH (3 h): 60.8 IU/L
Na (3 h): 142.6 meq/L
PL (3 h): 150.6 mg/dL
RALB (3 h): 2.6 g/dL
TBIL (3 h): 0.084 mg/dL
TC (3 h): 85.2 mg/dL
TG (3 h): 76.4 mg/dL
TP (3 h): 5.8 g/dL
gamma-GTP (3 h): 1 IU/L
TERMINAL_BW (6 h): 201.1 g
APTT (6 h): 15.6 s
Bas (6 h): 0.2%
Eos (6 h): 0.8%
Fbg (6 h): 279.6 mg/dL
Hb (6 h): 13.9 g/dL
Ht (6 h): 40.4%
Lym (6 h): 72.6%
MCH (6 h): 21.2 pg
MCHC (6 h): 34.3%
MCV (6 h): 61.8 fL
Mono (6 h): 1.6%
Neu (6 h): 24.1%
PT (6 h): 12.7 s
Plat (6 h): 136.4 x10_4/uL
RBC (6 h): 654.6 x10_4/ul
Ret (6 h): 7.3%
WBC (6 h): 78.7 x10_2/uL
KIDNEY_L (6 h): 0.9 g
KIDNEY_R (6 h): 0.8 g
KIDNEY_TOTAL (6 h): 1.7 g
LIVER (6 h): 7.5 g
A/G (6 h): 0.9
ALP (6 h): 1472.6 IU/L
ALT (6 h): 49.4 IU/L
AST (6 h): 74 IU/L
BUN (6 h): 9.6 mg/dL
CRE (6 h): 0.2 mg/dL
Ca (6 h): 10.9 mg/dL
Cl (6 h): 108.4 meq/L
DBIL (6 h): 0.034 mg/dL
GLC (6 h): 166 mg/dL
IP (6 h): 9.8 mg/dL
K (6 h): 4 meq/L
LDH (6 h): 54.8 IU/L
Na (6 h): 142.6 meq/L
PL (6 h): 139.4 mg/dL
RALB (6 h): 2.6 g/dL
TBIL (6 h): 0.09 mg/dL
TC (6 h): 81.4 mg/dL
TG (6 h): 68.6 mg/dL
TP (6 h): 5.7 g/dL
gamma-GTP (6 h): 1 IU/L
TERMINAL_BW (9 h): 199.9 g
APTT (9 h): 16.6 s
Bas (9 h): 0.2%
Eos (9 h): 0.9%
Fbg (9 h): 285 mg/dL
Hb (9 h): 13.6 g/dL
Ht (9 h): 39.7%
Lym (9 h): 71.9%
MCH (9 h): 21.1 pg
MCHC (9 h): 34.4%
MCV (9 h): 61.6 fL
Mono (9 h): 1.6%
Neu (9 h): 24.9%
PT (9 h): 13.2 s
Plat (9 h): 138.7 x10_4/uL
RBC (9 h): 643.8 x10_4/ul
Ret (9 h): 7.6%
WBC (9 h): 65.3 x10_2/uL
KIDNEY_L (9 h): 0.9 g
KIDNEY_R (9 h): 0.8 g
KIDNEY_TOTAL (9 h): 1.7 g
LIVER (9 h): 7.5 g
A/G (9 h): 0.8
ALP (9 h): 1561.2 IU/L
ALT (9 h): 41.6 IU/L
AST (9 h): 72.8 IU/L
BUN (9 h): 7.6 mg/dL
CRE (9 h): 0.2 mg/dL
Ca (9 h): 11 mg/dL
Cl (9 h): 107.8 meq/L
DBIL (9 h): 0.03 mg/dL
GLC (9 h): 154.8 mg/dL
IP (9 h): 10.3 mg/dL
K (9 h): 4 meq/L
LDH (9 h): 51.4 IU/L
Na (9 h): 142.8 meq/L
PL (9 h): 135.2 mg/dL
RALB (9 h): 2.7 g/dL
TBIL (9 h): 0.09 mg/dL
TC (9 h): 78.2 mg/dL
TG (9 h): 44.6 mg/dL
TP (9 h): 5.9 g/dL
gamma-GTP (9 h): 0.8 IU/L
TERMINAL_BW (24 h): 209.5 g
APTT (24 h): 16.1 s
Bas (24 h): 0.2%
Eos (24 h): 0.4%
Fbg (24 h): 257 mg/dL
Hb (24 h): 13.5 g/dL
Ht (24 h): 39.5%
Lym (24 h): 79.9%
MCH (24 h): 20.8 pg
MCHC (24 h): 34.1%
MCV (24 h): 61 fL
Mono (24 h): 2.3%
Neu (24 h): 16.1%
PT (24 h): 12.4 s
Plat (24 h): 150.2 x10_4/uL
RBC (24 h): 647.4 x10_4/ul
Ret (24 h): 6.3%
WBC (24 h): 89 x10_2/uL
KIDNEY_L (24 h): 0.9 g
KIDNEY_R (24 h): 0.9 g
KIDNEY_TOTAL (24 h): 1.9 g
LIVER (24 h): 9.4 g
A/G (24 h): 0.9
ALP (24 h): 1827.8 IU/L
ALT (24 h): 46.2 IU/L
AST (24 h): 75.8 IU/L
BUN (24 h): 12.4 mg/dL
CRE (24 h): 0.2 mg/dL
Ca (24 h): 11.4 mg/dL
Cl (24 h): 107.8 meq/L
DBIL (24 h): 0.046 mg/dL
GLC (24 h): 156.4 mg/dL
IP (24 h): 8.3 mg/dL
K (24 h): 4.3 meq/L
LDH (24 h): 72 IU/L
Na (24 h): 142.8 meq/L
PL (24 h): 149 mg/dL
RALB (24 h): 2.7 g/dL
TBIL (24 h): 0.098 mg/dL
TC (24 h): 84.2 mg/dL
TG (24 h): 236.8 mg/dL
TP (24 h): 5.8 g/dL
gamma-GTP (24 h): 1 IU/L
